Measurements from paper PMC5994430, “Mitochondrial Delivery of Phenol Substructure Triggers Mitochondrial Depolarization and Apoptosis of Cancer Cells” (Frontiers in Pharmacology, 2018).

What was measured:
[1] = test system: mitofusin 1 (MFN1) and mitofusin 2 (MFN2); test: qRT-PCR of mitofusin mRNA in A549 cells; format: cell-based, Human; settings: 0.1 μM, 4 h
Method: Supplementary Figure 4 Effects of TPP-derivatives on mitofusin 1 and mitofusin 2 expression.
A549 and BEAS-2B cells were incubated 4 h in fresh medium (ctrl) or with 0.1 µM of 1 and 2.
Expression of mitofusin 1 (MFN1) and mitofusin 2 (MFN2) mRNA was evaluated by qRT-PCR in
triplicates. Data are means ± SD (n=3).
(1 picture or pasted object on this page, not shown here)

[2] = test system: human cancer cell lines and normal cells; test: Cell viability, panel of cancer cell lines and normal cells; format: cell-based; settings: for IC50: Homo sapiens, all cancer cell lines examined; for concentrations with cytotoxic activity: cancer cell lines in vitro
Excerpt: Human colon cancer HT29 cells, colon-derived normal fibroblast CCD-18Co cells, lung cancer A549 cells, normal human bronchial epithelial (immortalized with adenovirus 12-SV40 virus hybrid Ad12SV40) BEAS-2B cells, breast cancer MDA-MB-231 cells, normal breast epithelial MCF10A cells, human osteosarcoma U-2OS cells were purchased from ATCC (Manassas, VA, United States). Primary osteoblasts were generated as reported previously ([Buondonno et al., 2016]). HMM and HMC were primary cells stabilized in culture as described ([Aldieri et al., 2004]). The use of primary cells was approved by Ethical Committee of the San Luigi Gonzaga Hospital, Orbassano, (protocol #126/2016). All subjects gave written informed consent in accordance with the Declaration of Helsinki. Cells were maintained in medium supplemented with 10% v/v fetal bovine serum, 1% v/v penicillin-streptomycin, 1% v/v L-glutamine. Morphological analysis was performed with a bright field microscope (Leica Microsystems, Wetzlar, Germany). At least 5 fields/experimental condition were examined.
The extracellular release of LDH, considered an index of cell damage and necrosis, was measured spectrophotometrically, as reported ([Riganti et al., 2013b]). The extracellular medium was centrifuged at 12,000 × g for 15 min to pellet cellular debris, the cells were washed with fresh medium, detached with 0.01% trypsin/EDTA, re-suspended in 0.2 ml of 82.3 mM triethanolamine phosphate-HCl (pH 7.6), and sonicated on ice with two 10-sec bursts. LDH activity was measured in the extracellular medium and in the cell lysate: 50 μl of extracellular medium or 5 μl of cell lysate were incubated at 37°C with 5 mM NADH. The reaction was started by adding 20 mM pyruvic acid and was monitored for 6 min, measuring absorbance at 340 nm using a Synergy HT Multi-Detection Microplate Reader (Bio-Tek Instruments, Winoosky, MT, United States). The reaction kinetics were linear throughout the time of measurement. Both intracellular and extracellular enzyme activities were expressed as μmol NADH oxidized/min/dish. The results were expressed as percentage of extracellular LDH versus total (intracellular plus extracellular) LDH. Cell viability was measured by the neutral red staining method, as previously reported ([Riganti et al., 2015b]). The absorbance of untreated cells was considered as 100% viability; the results were expressed as percentage of viable cells versus untreated cells. IC50 was calculated with the CompuSyn software^1.
FIGURE 4 Effects of phenolic TPP-derivatives on the viability of cancer cell lines and normal cells. Cells were incubated 72 h in fresh medium (0) or with increasing concentrations (0.1, 1, and 10 μM) of 1 and 2. Cell viability was measured spectrophotometrically in quadruplicates. […]

mitochondrial ATP = test: Mitochondrial ATP in A549 cells; format: cell-based, Human; settings: 0.1 μM, 4 h
Method: The amount of ATP was measured on 20 μg of mitochondrial extracts with the ATP Bioluminescent Assay Kit (FL-AA, Sigma Chemical Co.). Data were converted into nmoles/mg mitochondrial proteins, using a calibration curve previously set.
[t] Continuedof three experiments with similar results. (D) Confocal analysis of mitochondrial staining with MitoTracker® Green FM. Magnification: 60 × objective (0.52 numerical aperture); 10 × ocular lens. Bar: 10 μM. The micrographs are representative of three experiments with similar results. (E,F) The electron transport was measured spectrophotometrically in duplicates. ATP levels in mitochondrial extracts was measured by a chemiluminescence-based assay, in duplicates. Data are means ± SD (n = 3). For both panels: ^∗p < 0.001 vs. A549 ctrl cells; °p < 0.001 for BEAS-2B cells vs. the corresponding condition in A549 cells. (G,H) ROS amount in mitochondrial extracts and mitochondrial damage were measured fluorimetrically, in duplicates. Data are means ± SD (n = 3). For both panels: ^∗p < 0.001 vs. A549 ctrl cells; °p < 0.001 for BEAS-2B cells vs. the corresponding condition in A549 cells. There were no statistically significant differences between untreated (ctrl) and compound 1/compound 2-treated BEAS-2B cells for all the parameters analyzed in this figure.

PGC-1α = test: Immunoblot of nuclear PGC-1α in A549 cells; format: cell-based, Human; settings: 0.1 μM, 4 h
U-2OS cells = test: Cell viability (neutral red), IC50; format: cell-based, Human; settings: U-2OS osteosarcoma cells, CompuSyn

SMILES	expression of mitofusin 1 (MFN1) and mitofusin 2 (MFN2) [1]	IC50 [2] [nM]	concentrations with cytotoxic activity [2] [nM]	amount of mitochondrial ATP (mitochondrial ATP)	nuclear level of PGC-1α (PGC-1α)	IC50 (U-2OS cells; Homo sapiens, U2OS) [nM]	IC50 (U-2OS cells) [nM]
CC(=O)Oc1ccc(C[P+](c2ccccc2)(c2ccccc2)c2ccccc2)cc1.[Br-] [Compound 1]	no changes	< 10000	100 to 1000	significant decrease	reduced		
O=C(Oc1ccc(C[P+](c2ccccc2)(c2ccccc2)c2ccccc2)cc1C(F)(F)F)c1ccccc1.[Br-] [Compound 2]	no changes	< 10000	100 to 1000	significant decrease	reduced	< 1000	630 ± 100
